According to patent US20250186403A1 (ARIZONA BOARD OF REGENTS ON BEHALF OF THE UNIVERSITY OF …, priority 2022, published 2025):
pIC50: −log10 of the molar value.

How the values were obtained:
Cne cells = assay: Checkerboard assay with known antifungals; format: cell-based, Cryptococcus neoformans; details: for MIC: Cryptococcus neoformans, read-out: MIC Alone
Experimental: After adding Cne cells, the plates were incubated for 48 h. Well contents were mixed by pipette, and absorbance was read at 630 nm. […] Based on the FIC, the combinatorial effects are decided as in Table 2.

[1] = target: Split-NanoLuc-Prp8 intein protein (Cryptococcus gattii, UniProt E6R027); assay: Split nanoluciferase-Prp8 intein splicing assay; format: biochemical; details: 1 nM protein, 100 µM TCEP, 24 h; read-out: IC50, Prp8-NanoBit splicing
Chain of Split-NanoLuc-Prp8 intein protein (E6R027 entry or part of it): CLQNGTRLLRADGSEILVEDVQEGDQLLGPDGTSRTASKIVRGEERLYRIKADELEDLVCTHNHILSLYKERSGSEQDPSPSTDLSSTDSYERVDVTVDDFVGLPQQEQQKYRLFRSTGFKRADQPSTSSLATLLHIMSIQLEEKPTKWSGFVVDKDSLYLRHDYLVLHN
Experimental: TCEP is added to a final concentration of 100 µM and incubated for 24 h. The substrate Nano-Glo luciferase (Promega) was added, and the resulting luminescence was read. IC50 was calculated using GraphPad prism.
For the split nanoluciferase-Prp8 intein, in order to block the free cysteine residues, 5,5′-dithiobis-(2-nitrobenzoic) acid (DTNB) was added to 1:10 molar ratio and incubated at 4° C. for 5 min and dialyzed in 20 mM Tris, 150 mM NaCl, pH 9.0 and stored at −80° C. till further use.
The protein was diluted into 2 nM in assay buffer 20 mM tris, 150 mM NaCl with 0.1% BSA, 2 mM EDTA), and 80 μl was added to each well of 96 well plates (white, opaque). […] The plates were incubated at RT for 30 min, and 20 μl of TCEP was added to a final concentration of 100 µM. The plates were sealed to prevent evaporation. After incubating for 24 h at RT, 25 μl of the diluted (1:10,000 in assay buffer) diluted nanoluc substrate furimazine (Promega) was added. The emitted luminescence was quantified using the EnVision luminescence reader (Synergyll, Biotech). The IC50 was calculated using the GraphPad prism version 9.

[2] = single drug, ≥90% reduction of absorbance at 630 nm, 48 h

CCC(C)n1ncn(-c2ccc(N3CCN(c4ccc(OCC5COC(Cn6cncn6)(c6ccc(Cl)cc6Cl)O5)cc4)CC3)cc2)c1=O (stereo not drawn) [Itraconazole]
MIC (Cne cells; [2]): 0.22 µg/mL
MIC Comb (Cne cells; combination CMN + Itraconazole, well E4): 0.22 µg/mL

Nc1nc(=O)[nH]cc1F [5-Fluorocytosine]
MIC (Cne cells; [2]): 4.13 µg/mL
MIC Comb (Cne cells; combination CMN + 5-Fluorocytosine, well D2): 2.06 µg/mL

N.N.[Cl][Pt][Cl] [cisplatin]
pIC50 [1]: 5.85

C[C@@H](c1ncncc1F)[C@](O)(Cn1cncn1)c1ccc(F)cc1F [Voriconazole]
MIC (Cne cells; [2]): 0.05 µg/mL
MIC Comb (Cne cells; combination CMN + Voriconazole, well D4): 0.05 µg/mL

C[C@@H]1[C@H](O)[C@@H](C)/C=C/C=C/C=C/C=C/C=C/C=C/C=C/[C@H](O[C@@H]2O[C@H](C)[C@@H](O)[C@H](N)[C@@H]2O)C[C@@H]2O[C@](O)(C[C@@H](O)C[C@@H](O)[C@H](O)CC[C@@H](O)C[C@@H](O)CC(=O)O[C@H]1C)C[C@H](O)[C@H]2C(=O)O [Amphotericin B]
MIC Comb (Cne cells; combination CMN + Amphotericin B, well E6): 0.14 µg/mL
MIC Alone (Cne cells; [2]): 0.6 µg/mL
